Source: PubChem BioAssay (NCI)
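Cells were grown in 96-well plates and exposed to each compound for 48 hours at five concentrations; endpoints were interpolated linearly between bracketing concentrations, or set to the highest concentration if not reached. GI50: concentration for 50% inhibition of growth. TGI: concentration producing complete growth inhibition.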

Columns and labels:
Assay in all cases: DTP human tumour cell line panel, 48 h
[1] = system: CAKI-1 renal
[2] = system: ACHN renal
[3] = system: IGROV1 ovarian
[4] = system: OVCAR-8 ovarian
[5] = system: SF-268 CNS
[6] = system: SNB-75 CNS
[7] = system: HCC-2998 colon
[8] = system: HOP-62 NSCLC
[9] = system: SF-539 CNS
[10] = system: A498 renal
[11] = system: HL-60(TB) leukemia
[12] = system: U251 CNS
[13] = system: T-47D breast
[14] = system: 786-0 renal
[15] = system: NCI-H460 lung
[16] = system: OVCAR-4 ovarian
[17] = system: NCI-H522 lung
[18] = system: SN12C renal
[19] = system: UACC-62 melanoma
[20] = system: SK-MEL-5 melanoma
[21] = system: OVCAR-5 ovarian
[22] = system: UO-31 renal
[23] = system: MALME-3M melanoma
[24] = system: SF-295 CNS
[25] = system: M14 melanoma
[26] = system: HOP-92 NSCLC
[27] = system: EKVX NSCLC
[28] = system: MDA-MB-435
[29] = system: CCRF-CEM leukemia
[30] = system: SR leukemia
[31] = system: DU-145 prostate
[32] = system: PC-3 prostate
[33] = system: A549 NSCLC
[34] = system: RPMI-8226 leukemia
[35] = system: KM12 colon
[36] = system: UACC-257 melanoma
[37] = system: K-562 leukemia
[38] = system: MCF7 breast
[39] = system: HT29 colon
[40] = system: NCI/ADR-RES ovarian
[41] = system: BT-549 breast
[42] = system: NCI-H23 lung
[43] = system: SNB-19 CNS
[44] = system: NCI-H226 lung
[45] = system: OVCAR-3 ovarian
[46] = system: MDA-MB-231 breast
[47] = system: COLO 205 colon
[48] = system: MOLT-4 leukemia
[49] = system: RXF 393 renal
[50] = system: SK-MEL-28 melanoma
[51] = system: TK-10 renal
[52] = system: HS 578T breast
[53] = system: SK-MEL-2 melanoma
[54] = system: SW-620 colon
[55] = system: LOX IMVI melanoma
[56] = system: HCT-15 colon
[57] = system: HCT-116 colon
[58] = system: SK-OV-3 ovarian

`CCOC(=O)c1nc2ccccc2nc1Nc1ccc(OC)cc1` was tested, and the TGI [1] was 56.6 µM, the TGI [2] was greater than 100 µM and the TGI [3] was greater than 100 µM. For the same compound, the TGI [4] was greater than 100 µM, the TGI [5] was greater than 100 µM and the TGI [6] was 93.2 µM. The TGI [7] was greater than 100 µM, the TGI [8] was 30.7 µM and the TGI [9] was 52.1 µM. It also gave a TGI [10] of 84.5 µM, a TGI [11] greater than 100 µM and a TGI [12] greater than 100 µM. It also gave a TGI [13] greater than 100 µM, a TGI [14] greater than 100 µM and a TGI [15] greater than 100 µM. For the same compound, the TGI [16] was 55.7 µM, the TGI [17] was greater than 100 µM and the TGI [18] was 61.5 µM. For the same compound, the TGI [19] was 66.6 µM, the TGI [20] was greater than 100 µM and the TGI [21] was greater than 100 µM. It also gave a TGI [22] greater than 100 µM, a TGI [23] greater than 100 µM and a TGI [24] of 54.4 µM. It also gave a TGI [25] greater than 100 µM, a TGI [26] of 54.4 µM and a TGI [27] greater than 100 µM. The TGI [28] was greater than 100 µM, the TGI [29] was greater than 100 µM and the TGI [30] was greater than 100 µM. For the same compound, the TGI [31] was greater than 100 µM, the TGI [32] was greater than 100 µM and the TGI [33] was greater than 100 µM. For the same compound, the TGI [34] was greater than 100 µM, the TGI [35] was greater than 100 µM and the TGI [36] was greater than 100 µM. For the same compound, the TGI [37] was greater than 100 µM, the TGI [38] was greater than 100 µM and the TGI [39] was greater than 100 µM. For the same compound, the TGI [40] was greater than 100 µM, the TGI [41] was 73.6 µM and the TGI [42] was greater than 100 µM. The TGI [43] was 83.9 µM, the TGI [44] was greater than 100 µM and the TGI [45] was 70.4 µM. It also gave a TGI [46] of 51.3 µM, a TGI [47] greater than 100 µM and a TGI [48] greater than 100 µM. It also gave a TGI [49] of 39.7 µM, a TGI [50] greater than 100 µM and a TGI [51] greater than 100 µM. For the same compound, the TGI [52] was greater than 100 µM, the TGI [53] was greater than 100 µM and the TGI [54] was greater than 100 µM. The TGI [55] was greater than 100 µM, the TGI [56] was greater than 100 µM and the TGI [57] was greater than 100 µM.

With `Cc1c(-c2ccc(O)cc2)oc(=O)c2ccc(O)cc12` the GI50 [1] was 22.4 µM, the TGI [1] was greater than 100 µM and the GI50 [2] was greater than 100 µM. The TGI [2] was greater than 100 µM, the GI50 [3] was 35.7 µM and the TGI [3] was greater than 100 µM. For the same compound, the GI50 [4] was 83.8 µM, the TGI [4] was greater than 100 µM and the GI50 [5] was 55.4 µM. For the same compound, the TGI [5] was greater than 100 µM, the GI50 [7] was 36.9 µM and the TGI [7] was greater than 100 µM. It also gave a GI50 [8] of 41 µM, a TGI [8] greater than 100 µM and a GI50 [9] of 36.7 µM. For the same compound, the TGI [9] was greater than 100 µM, the GI50 [10] was 42.8 µM and the TGI [10] was 98.1 µM. The GI50 [12] was 63.8 µM, the TGI [12] was greater than 100 µM and the GI50 [13] was greater than 100 µM. The TGI [13] was greater than 100 µM, the GI50 [14] was 50.7 µM and the TGI [14] was greater than 100 µM. For the same compound, the GI50 [15] was 45.3 µM, the TGI [15] was greater than 100 µM and the GI50 [16] was greater than 100 µM. It also gave a TGI [16] greater than 100 µM, a GI50 [17] of 87.6 µM and a TGI [17] greater than 100 µM. The GI50 [18] was 66.6 µM, the TGI [18] was greater than 100 µM and the GI50 [19] was 35.2 µM. It also gave a TGI [19] greater than 100 µM, a GI50 [20] of 33.3 µM and a TGI [20] greater than 100 µM. The GI50 [21] was greater than 100 µM, the TGI [21] was greater than 100 µM and the GI50 [22] was 69.9 µM. It also gave a TGI [22] greater than 100 µM, a GI50 [23] of 32.7 µM and a TGI [23] greater than 100 µM. For the same compound, the GI50 [24] was 32.8 µM, the TGI [24] was greater than 100 µM and the GI50 [25] was 40.3 µM. The TGI [25] was greater than 100 µM, the GI50 [26] was greater than 100 µM and the TGI [26] was greater than 100 µM. The GI50 [27] was 54.6 µM, the TGI [27] was greater than 100 µM and the GI50 [28] was 15.4 µM. It also gave a TGI [28] of 85.2 µM, a GI50 [58] greater than 100 µM and a TGI [58] greater than 100 µM. For the same compound, the GI50 [29] was 32.6 µM, the TGI [29] was greater than 100 µM and the GI50 [30] was 41.6 µM. It also gave a TGI [30] greater than 100 µM, a GI50 [31] of 75.8 µM and a TGI [31] greater than 100 µM. For the same compound, the GI50 [32] was 56.4 µM, the TGI [32] was greater than 100 µM and the GI50 [33] was 47.6 µM. The TGI [33] was greater than 100 µM, the GI50 [34] was 31 µM and the TGI [34] was greater than 100 µM. It also gave a GI50 [35] of 60.9 µM, a TGI [35] greater than 100 µM and a GI50 [36] of 63.2 µM. For the same compound, the TGI [36] was greater than 100 µM, the GI50 [37] was 38.5 µM and the TGI [37] was greater than 100 µM. For the same compound, the GI50 [38] was 66.3 µM, the TGI [38] was greater than 100 µM and the GI50 [39] was 73.3 µM. The TGI [39] was greater than 100 µM, the GI50 [40] was 49.7 µM and the TGI [40] was greater than 100 µM. For the same compound, the GI50 [41] was 35.6 µM, the TGI [41] was greater than 100 µM and the GI50 [43] was greater than 100 µM. It also gave a TGI [43] greater than 100 µM, a GI50 [44] greater than 100 µM and a TGI [44] greater than 100 µM. It also gave a GI50 [45] of 51.5 µM, a TGI [45] greater than 100 µM and a GI50 [46] greater than 100 µM. The TGI [46] was greater than 100 µM, the GI50 [47] was greater than 100 µM and the TGI [47] was greater than 100 µM. For the same compound, the GI50 [48] was 73.7 µM, the TGI [48] was greater than 100 µM and the GI50 [49] was greater than 100 µM. It also gave a TGI [49] greater than 100 µM, a GI50 [50] of 60 µM and a TGI [50] greater than 100 µM. It also gave a GI50 [51] of 27.4 µM, a TGI [51] greater than 100 µM and a GI50 [52] of 43.5 µM. For the same compound, the TGI [52] was greater than 100 µM, the GI50 [53] was greater than 100 µM and the TGI [53] was greater than 100 µM. The GI50 [54] was 55.4 µM, the TGI [54] was greater than 100 µM and the GI50 [55] was greater than 100 µM. It also gave a TGI [55] greater than 100 µM, a GI50 [56] of 89.8 µM and a TGI [56] greater than 100 µM. The GI50 [57] was 38 µM and the TGI [57] was greater than 100 µM.
